# Source: ChEMBL document CHEMBL1772973, “Design, synthesis, radiolabeling, and in vitro and in vivo evaluation of bridgehead iodinated analogues of N-{2-[4-(2-methoxyphenyl)piperazin-1-yl]ethyl}-N-(pyridin-2-yl)cyclohexanecarboxamide (WAY-100635) as potential SPECT ligands for the 5-HT1A receptor” (J Med Chem, 2011)
# Tests used:
# [1] = target: T1, 5-hydroxytryptamine receptor 1A (Homo sapiens, UniProt P08908); assay: biochemical
# T1 sequence (P08908 whole entry): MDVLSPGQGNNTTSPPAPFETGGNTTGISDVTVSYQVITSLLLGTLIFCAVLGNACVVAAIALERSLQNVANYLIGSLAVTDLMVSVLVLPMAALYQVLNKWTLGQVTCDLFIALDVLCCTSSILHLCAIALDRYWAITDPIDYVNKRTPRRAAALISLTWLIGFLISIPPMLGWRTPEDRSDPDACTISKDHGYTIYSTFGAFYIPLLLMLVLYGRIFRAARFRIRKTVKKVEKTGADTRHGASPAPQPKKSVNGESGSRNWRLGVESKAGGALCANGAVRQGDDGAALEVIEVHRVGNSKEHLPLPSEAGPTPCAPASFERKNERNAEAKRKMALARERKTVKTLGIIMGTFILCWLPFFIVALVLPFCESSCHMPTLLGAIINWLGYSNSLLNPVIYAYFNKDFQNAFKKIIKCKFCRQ
# Description: Displacement of [3H]8-OH-DPAT from human cloned 5HT1A receptor expressed in HEK293 EBNA cells after 1 hr by liquid scintillation counting
# [2] = target: T2, Alpha-1A adrenergic receptor (Homo sapiens, UniProt P35348)
# T2 sequence (P35348 whole entry): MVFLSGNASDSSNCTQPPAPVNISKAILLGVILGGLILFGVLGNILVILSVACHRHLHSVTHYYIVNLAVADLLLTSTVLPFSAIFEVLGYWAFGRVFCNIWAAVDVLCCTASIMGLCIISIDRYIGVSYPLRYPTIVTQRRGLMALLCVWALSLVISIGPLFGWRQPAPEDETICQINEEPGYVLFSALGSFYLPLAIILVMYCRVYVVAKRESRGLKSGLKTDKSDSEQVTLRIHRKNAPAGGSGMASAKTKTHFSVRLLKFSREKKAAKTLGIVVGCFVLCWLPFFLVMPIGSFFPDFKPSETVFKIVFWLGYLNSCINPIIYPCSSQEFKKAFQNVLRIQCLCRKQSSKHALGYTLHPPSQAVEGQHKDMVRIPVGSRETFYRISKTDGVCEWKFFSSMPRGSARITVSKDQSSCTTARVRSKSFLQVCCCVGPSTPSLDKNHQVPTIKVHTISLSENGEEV
# Description: Inhibition of adrenergic alpha1A receptor
# D(4) dopamine receptor = target: T3, D(4) dopamine receptor (Homo sapiens, UniProt P21917)
# T3 sequence (P21917 whole entry): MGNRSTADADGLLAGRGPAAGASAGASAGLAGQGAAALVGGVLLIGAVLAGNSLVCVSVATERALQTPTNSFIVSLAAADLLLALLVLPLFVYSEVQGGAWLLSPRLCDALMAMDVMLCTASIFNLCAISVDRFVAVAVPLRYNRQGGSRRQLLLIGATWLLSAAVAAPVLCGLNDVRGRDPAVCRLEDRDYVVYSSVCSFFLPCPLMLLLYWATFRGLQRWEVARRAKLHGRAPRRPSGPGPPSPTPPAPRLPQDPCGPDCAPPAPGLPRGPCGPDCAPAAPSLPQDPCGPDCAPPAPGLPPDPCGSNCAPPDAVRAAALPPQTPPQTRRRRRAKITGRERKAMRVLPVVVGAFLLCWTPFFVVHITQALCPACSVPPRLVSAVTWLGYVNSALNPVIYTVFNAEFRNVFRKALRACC
# Description: Inhibition of dopamine D4 receptor
# [3] = target: T1, 5-hydroxytryptamine receptor 1A
# [4] = target: 5-hydroxytryptamine receptor 7 (Homo sapiens, UniProt P34969)
# [5] = target: 5-hydroxytryptamine receptor 1B (Homo sapiens, UniProt P28222)
# [6] = target: T4, Alpha-1B adrenergic receptor (Homo sapiens, UniProt P35368)
# T4 sequence (P35368 whole entry): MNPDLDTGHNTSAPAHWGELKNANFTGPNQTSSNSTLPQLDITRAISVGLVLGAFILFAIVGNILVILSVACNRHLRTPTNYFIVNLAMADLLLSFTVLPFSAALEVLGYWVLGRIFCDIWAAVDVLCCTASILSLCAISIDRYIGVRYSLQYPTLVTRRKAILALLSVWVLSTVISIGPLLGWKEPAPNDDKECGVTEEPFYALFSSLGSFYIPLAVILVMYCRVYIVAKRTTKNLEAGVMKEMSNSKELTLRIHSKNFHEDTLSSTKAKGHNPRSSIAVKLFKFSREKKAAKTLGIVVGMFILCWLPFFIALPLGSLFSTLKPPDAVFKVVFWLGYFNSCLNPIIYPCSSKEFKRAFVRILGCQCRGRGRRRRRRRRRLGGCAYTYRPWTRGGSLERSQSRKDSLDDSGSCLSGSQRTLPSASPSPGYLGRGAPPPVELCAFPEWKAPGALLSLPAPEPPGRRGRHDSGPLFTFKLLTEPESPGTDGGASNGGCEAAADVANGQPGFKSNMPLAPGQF
# Description: Inhibition of adrenergic Alpha-1B receptor
# [7] = target: T5, Alpha-1D adrenergic receptor (Homo sapiens, UniProt P25100)
# T5 sequence (P25100 whole entry): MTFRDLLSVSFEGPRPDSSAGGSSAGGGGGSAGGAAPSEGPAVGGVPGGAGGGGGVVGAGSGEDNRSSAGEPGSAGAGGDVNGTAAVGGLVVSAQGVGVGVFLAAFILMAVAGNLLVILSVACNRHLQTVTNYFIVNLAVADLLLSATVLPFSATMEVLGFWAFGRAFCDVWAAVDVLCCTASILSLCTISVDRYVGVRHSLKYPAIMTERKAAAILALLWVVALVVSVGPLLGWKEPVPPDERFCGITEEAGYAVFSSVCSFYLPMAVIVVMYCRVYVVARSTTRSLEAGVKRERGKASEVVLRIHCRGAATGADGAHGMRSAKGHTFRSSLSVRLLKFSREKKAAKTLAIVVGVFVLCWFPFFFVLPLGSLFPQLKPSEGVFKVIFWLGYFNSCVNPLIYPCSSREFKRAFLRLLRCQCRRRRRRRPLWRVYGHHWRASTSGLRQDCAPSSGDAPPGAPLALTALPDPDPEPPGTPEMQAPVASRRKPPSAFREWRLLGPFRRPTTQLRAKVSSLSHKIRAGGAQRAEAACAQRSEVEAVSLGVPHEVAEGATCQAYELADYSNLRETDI
# Description: Inhibition of adrenergic Alpha-1D receptor
# physchem = settings: octanol/water, pH 7.4
# Blood [8] = assay: Biodistribution in non-labeled WAY-100635 ptretreated Wistar rat blood at 7 MBq, iv after 45 mins; type: ADME, organism-based; settings: in vivo, 0.75 h
# Rattus norvegicus [9] = assay: Biodistribution in non-labeled WAY-100635 ptretreated Wistar rat frontal cortex at 7 MBq, iv after 45 mins; type: ADME, organism-based; settings: in vivo, 0.75 h
# Occipital cortex [10] = assay: Biodistribution in Wistar rat occipital cortex at 7 MBq, iv after 45 mins; type: ADME, organism-based; settings: in vivo, 0.75 h
# Lung [11] = assay: Biodistribution in non-labeled WAY-100635 ptretreated Wistar rat lung at 7 MBq, iv after 45 mins; type: ADME, organism-based; settings: in vivo, 0.75 h
# Striatum [12] = assay: Biodistribution in Wistar rat striatum at 7 MBq, iv after 45 mins; type: ADME, organism-based; settings: in vivo, 0.75 h
# Nucleic Acid [13] = assay: Ratio of drug level in cerebellum to occipital cortex in Wistar rat at 7 MBq, iv after 45 mins; type: ADME, organism-based; settings: in vivo, 0.75 h
# Nucleic Acid [14] = assay: Ratio of drug level in cerebellum to striatum in Wistar rat at 7 MBq, iv after 45 mins; type: ADME, organism-based; settings: in vivo, 0.75 h
# Nucleic Acid [15] = assay: Ratio of drug level in cerebellum to hippocampus in Wistar rat at 7 MBq, iv after 45 mins; type: ADME, organism-based; settings: in vivo, 0.75 h
# Kidney [16] = assay: Biodistribution in non-labeled WAY-100635 ptretreated Wistar rat kidney at 7 MBq, iv after 45 mins; type: ADME, organism-based; settings: in vivo, 0.75 h
# Cerebellum [17] = assay: Biodistribution in non-labeled WAY-100635 ptretreated Wistar rat cerebellum at 7 MBq, iv after 45 mins; type: ADME, organism-based; settings: in vivo, 0.75 h
# Heart [18] = assay: Biodistribution in Wistar rat heart at 7 MBq, iv after 45 mins; type: ADME, organism-based; settings: in vivo, 0.75 h
# Rattus norvegicus [19] = assay: Biodistribution in non-labeled WAY-100635 ptretreated Wistar rat rest cortex at 7 MBq, iv after 45 mins; type: ADME, organism-based; settings: in vivo, 0.75 h
# Hippocampus [20] = assay: Biodistribution in non-labeled WAY-100635 ptretreated Wistar rat hippocampus at 7 MBq, iv after 45 mins; type: ADME, organism-based; settings: in vivo, 0.75 h
# Heart [21] = assay: Biodistribution in non-labeled WAY-100635 ptretreated Wistar rat heart at 7 MBq, iv after 45 mins; type: ADME, organism-based; settings: in vivo, 0.75 h
# Occipital cortex [22] = assay: Biodistribution in non-labeled WAY-100635 ptretreated Wistar rat occipital cortex at 7 MBq, iv after 45 mins; type: ADME, organism-based; settings: in vivo, 0.75 h
# Striatum [23] = assay: Biodistribution in non-labeled WAY-100635 ptretreated Wistar rat striatum at 7 MBq, iv after 45 mins; type: ADME, organism-based; settings: in vivo, 0.75 h
# Rattus norvegicus [24] = assay: Biodistribution in Wistar rat frontal cortex at 7 MBq, iv after 45 mins; type: ADME, organism-based; settings: in vivo, 0.75 h
# Liver [25] = assay: Biodistribution in Wistar rat liver at 7 MBq, iv after 45 mins; type: ADME, organism-based; settings: in vivo, 0.75 h
# Kidney [26] = assay: Biodistribution in Wistar rat kidney at 7 MBq, iv after 45 mins; type: ADME, organism-based; settings: in vivo, 0.75 h
# Lung [27] = assay: Biodistribution in Wistar rat lung at 7 MBq, iv after 45 mins; type: ADME, organism-based; settings: in vivo, 0.75 h
# Rattus norvegicus [28] = assay: Biodistribution in Wistar rat rest cortex at 7 MBq, iv after 45 mins; type: ADME, organism-based; settings: in vivo, 0.75 h
# Liver [29] = assay: Biodistribution in non-labeled WAY-100635 ptretreated Wistar rat liver at 7 MBq, iv after 45 mins; type: ADME, organism-based; settings: in vivo, 0.75 h
# Thyroid gland = assay: Biodistribution in non-labeled WAY-100635 ptretreated Wistar rat thyroid assessed per organ at 7 MBq, iv after 45 mins; type: ADME, organism-based; settings: in vivo, 0.75 h
# Blood [30] = assay: Biodistribution in Wistar rat blood at 7 MBq, iv after 45 mins; type: ADME, organism-based; settings: in vivo, 0.75 h
# Nucleic Acid [31] = assay: Ratio of drug level in cerebellum to frontal cortex in Wistar rat at 7 MBq, iv after 45 mins; type: ADME, organism-based; settings: in vivo, 0.75 h
# Cerebellum [32] = assay: Biodistribution in Wistar rat cerebellum at 7 MBq, iv after 45 mins; type: ADME, organism-based; settings: in vivo, 0.75 h
# Hippocampus [33] = assay: Biodistribution in Wistar rat hippocampus at 7 MBq, iv after 45 mins; type: ADME, organism-based; settings: in vivo, 0.75 h
# Sequence of 5-hydroxytryptamine receptor 1B (P28222 whole entry): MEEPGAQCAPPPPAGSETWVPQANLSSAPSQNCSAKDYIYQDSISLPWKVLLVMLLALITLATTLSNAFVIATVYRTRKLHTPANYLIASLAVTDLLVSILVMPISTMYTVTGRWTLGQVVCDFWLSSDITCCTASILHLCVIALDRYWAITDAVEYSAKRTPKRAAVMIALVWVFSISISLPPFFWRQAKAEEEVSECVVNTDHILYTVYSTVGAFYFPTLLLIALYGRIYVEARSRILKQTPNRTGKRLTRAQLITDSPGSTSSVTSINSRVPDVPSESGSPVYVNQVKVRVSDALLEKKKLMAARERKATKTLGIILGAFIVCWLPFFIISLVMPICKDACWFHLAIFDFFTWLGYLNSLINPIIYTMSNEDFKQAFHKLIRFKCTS
# Sequence of 5-hydroxytryptamine receptor 7 (P34969 whole entry): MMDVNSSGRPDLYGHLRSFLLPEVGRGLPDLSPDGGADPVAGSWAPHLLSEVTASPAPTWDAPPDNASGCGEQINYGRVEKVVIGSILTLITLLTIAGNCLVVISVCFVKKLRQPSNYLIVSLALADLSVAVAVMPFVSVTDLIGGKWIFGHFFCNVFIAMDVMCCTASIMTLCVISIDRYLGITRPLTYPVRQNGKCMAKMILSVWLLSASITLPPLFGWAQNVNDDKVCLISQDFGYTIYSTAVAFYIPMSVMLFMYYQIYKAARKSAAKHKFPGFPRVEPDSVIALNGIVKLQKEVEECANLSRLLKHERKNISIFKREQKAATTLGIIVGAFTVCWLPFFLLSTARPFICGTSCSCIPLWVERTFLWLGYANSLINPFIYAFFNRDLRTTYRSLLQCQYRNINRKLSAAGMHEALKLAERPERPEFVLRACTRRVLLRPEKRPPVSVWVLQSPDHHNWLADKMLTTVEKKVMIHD
structure (smiles),measurement,setting,value
COc1ccccc1N1CCN(CCN(C(=O)C23CC4CC(CC(I)(C4)C2)C3)c2ccccn2)CC1,IC50,[1],5.04 nM
same,Ki,[1],2.15 nM
COc1ccccc1N1CCN(CCN(C(=O)C23C4C5C2C2C3C4C52I)c2ccccn2)CC1 (stereo unspecified),Ki,[2],78 nM
same,Ki,D(4) dopamine receptor,329 nM
same,Ki,[3],2.2 nM
same,Ki,[4],161 nM
same,Ki,[5],121 nM
same,IC50,[1],2.59 nM
same,Ki,[1],1.11 nM
same,Ki,[6],185 nM
same,Ki,[7],98 nM
same,logD,physchem,4.14
COc1ccccc1N1CCN(CCN(C(=O)C23CCC(I)(CC2)CC3)c2ccccn2)CC1,IC50,[1],2.61 nM
same,Ki,[1],1.11 nM
COc1ccccc1N1CCN(CCN(C(=O)C23CCC(I)(CC2)C3)c2ccccn2)CC1,IC50,[1],2.02 nM
same,Ki,[1],0.87 nM
O=C(N(CCN1CCN(c2ccccc2O)CC1)c1ccccn1)C12CC3CC(C1)C(I)C(C3)C2 (stereo unspecified),IC50,[1],3.95 nM
same,Ki,[1],1.68 nM
O=C(N(CCN1CCN(c2ccccc2O)CC1)c1ccccn1)C12C3C4C1C1C2C3C41I (stereo unspecified),Ki,[2],176 nM
same,Ki,D(4) dopamine receptor,890 nM
same,Ki,[3],1.4 nM
same,Ki,[4],50 nM
same,Ki,[5],272 nM
same,IC50,[1],1.5 nM
same,Ki,[1],0.64 nM
same,Ki,[6],25 nM
same,Ki,[7],181 nM
same,logD,physchem,4.03
O=C(N(CCN1CCN(c2ccccc2O)CC1)c1ccccn1)C12CCC(I)(CC1)CC2,IC50,[1],4.57 nM
same,Ki,[1],1.95 nM
O=C(N(CCN1CCN(c2ccccc2O)CC1)c1ccccn1)C12CCC(I)(CC1)C2,IC50,[1],1.19 nM
same,Ki,[1],0.47 nM
COc1ccccc1N1CCN(CCN(C(=O)C23C4C5C2C2C3C4C52[123I])c2ccccn2)CC1 (stereo unspecified),Drug uptake,Blood [8],0.33 % ID/g
same,Drug uptake,Rattus norvegicus [9],0.05 % ID/g
same,Drug uptake,Occipital cortex [10],0.06 % ID/g
same,Drug uptake,Lung [11],0.31 % ID/g
same,Drug uptake,Striatum [12],0.04 % ID/g
same,Ratio,Nucleic Acid [13],1.21
same,Ratio,Nucleic Acid [14],0.91
same,Ratio,Nucleic Acid [15],2.51
same,Drug uptake,Kidney [16],1.32 % ID/g
same,Drug uptake,Cerebellum [17],0.05 % ID/g
same,Drug uptake,Heart [18],0.16 % ID/g
same,Drug uptake,Rattus norvegicus [19],0.04 % ID/g
same,Drug uptake,Hippocampus [20],0.06 % ID/g
same,Drug uptake,Heart [21],0.2 % ID/g
same,Drug uptake,Occipital cortex [22],0.05 % ID/g
same,Drug uptake,Striatum [23],0.04 % ID/g
same,Drug uptake,Rattus norvegicus [24],0.06 %ID
same,Drug uptake,Liver [25],2.34 % ID/g
same,Drug uptake,Kidney [26],1.37 % ID/g
same,Drug uptake,Lung [27],0.28 % ID/g
same,Drug uptake,Rattus norvegicus [28],0.05 % ID/g
same,Drug uptake,Liver [29],2.77 % ID/g
same,Drug uptake,Thyroid gland,0.01 %ID
same,Drug uptake,Blood [30],0.24 % ID/g
same,Ratio,Nucleic Acid [31],1.16
same,Drug uptake,Cerebellum [32],0.05 % ID/g
same,Drug uptake,Hippocampus [33],0.1 % ID/g
O=C(C1CCCCC1)N(CCN1CCN(c2ccccc2O)CC1)c1ccccn1,IC50,[1],0.77 nM
same,Ki,[1],0.33 nM
